Results from patent US20150105252A1, “SUBSTITUTED PYRAZOLES AS HERBICIDES” (E I DU PONT DE NEMOURS AND COMPANY, priority 2013, published 2015).

Columns and labels:
[1] = system: crabgrass, large; assay: Test A postemergence; assay type: in vivo, Digitaria sanguinalis
Procedure, shortened: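 After sowing in a sand–loam mix, pots received compound preemergence by directed soil spray, or postemergence once plants reached the one- to two-leaf stage (2–10 cm). Formulation contained surfactant in a non-phytotoxic solvent. Injury was scored visually after ~10 greenhouse days, 0–100 scale.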

[2] = system: wheat; assay: Test C preemergence; assay type: in vivo, Triticum aestivum; conditions: for Wheat plant response rating: scale 0 to 100 (0 no effect, 100 complete control)
Procedure, shortened: (§1)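 Greenhouse pot test: preemergence application onto freshly seeded loam/sand mix, postemergence application onto seedlings (1–4 leaves, 2–18 cm) in peat-vermiculite substrate. Responses scored visually 13 to 15 days later relative to controls, where 0 means no effect and 100 means complete control; a dash indicates no result.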

[3] = system: galium; assay: Test C preemergence; assay type: in vivo, Galium aparine; conditions: for Galium plant response rating: scale 0 to 100 (0 no effect, 100 complete control)
Procedure, shortened: as §1

[4] = system: johnsongrass; assay: Test C preemergence; assay type: in vivo, Sorghum halepense; conditions: for Johnsongrass plant response rating: scale 0 to 100 (0 no effect, 100 complete control)
Procedure, shortened: as §1

[5] = system: lambsquarters; assay: Test C preemergence; assay type: in vivo, Chenopodium album; conditions: for Lambsquarters plant response rating: scale 0 to 100 (0 no effect, 100 complete control)
Procedure, shortened: as §1

[6] = system: soybean; assay: Test C preemergence; assay type: in vivo, Glycine max; conditions: for Soybean plant response rating: scale 0 to 100 (0 no effect, 100 complete control)
Procedure, shortened: as §1

[7] = system: barnyardgrass; assay: Test C preemergence; assay type: in vivo, Echinochloa crus-galli; conditions: for Barnyardgrass plant response rating: scale 0 to 100 (0 no effect, 100 complete control)
Procedure, shortened: as §1

[8] = system: oilseed rape; assay: Test C preemergence; assay type: in vivo, Brassica napus; conditions: for Oilseed Rape plant response rating: scale 0 to 100 (0 no effect, 100 complete control)
Procedure, shortened: as §1

[9] = system: velvetleaf; assay: Test C preemergence; assay type: in vivo, Abutilon theophrasti; conditions: for Velvetleaf plant response rating: scale 0 to 100 (0 no effect, 100 complete control)
Procedure, shortened: as §1

[10] = system: blackgrass; assay: Test C postemergence; assay type: in vivo, Alopecurus myosuroides
Procedure, shortened: as §1

[11] = system: crabgrass, large; assay: Test C postemergence; assay type: in vivo, Digitaria sanguinalis
Procedure, shortened: as §1

[12] = system: johnsongrass; assay: Test C postemergence; assay type: in vivo, Sorghum halepense
Procedure, shortened: as §1

[13] = system: morningglory; assay: Test C postemergence; assay type: in vivo, Ipomoea coccinea
Procedure, shortened: as §1

[14] = system: velvetleaf; assay: Test C postemergence; assay type: in vivo, Abutilon theophrasti
Procedure, shortened: as §1

[15] = system: chickweed; assay: Test C postemergence; assay type: in vivo, Stellaria media
Procedure, shortened: as §1

[16] = preemergence, 31 g ai/ha, visual rating, 13 to 15 days
[17] = preemergence, 62 g ai/ha, 13 to 15 days
[18] = preemergence, 125 g ai/ha, 13 to 15 days, scale 0 to 100, 0 = no effect, 100 = complete control
[19] = Postemergence, 31 g ai/ha, visually evaluated after 13 to 15 days
[20] = postemergence, 62 g ai/ha, scale 0 to 100
[21] = postemergence, 250 g ai/ha, scale 0 to 100 (0 no effect, 100 complete control)
[22] = postemergence, 125 g ai/ha, scale 0 to 100, 0 no effect, 100 complete control

CCNC(=O)c1cc(CC)n(Cc2ccnc(OC(F)F)c2)n1 [Compound 130]
90: Crabgrass, Large plant response rating ([1]; Postemergence, 500 g ai/ha, 0 to 100 scale (0 no effect, 100 complete control)) | Plant response rating, Soybean [6, 18] | Plant response rating, Velvetleaf [9, 18]
40: Plant response rating, Wheat [2, 18]
70: Crabgrass, Large plant response rating ([1]; postemergence, 125 g ai/ha, about 10 days, visual rating on 0 to 100 scale (0 no effect, 100 complete control)) | Chickweed plant response rating [15, 20]
50: Barnyardgrass plant response rating ([7]; preemergence, 31 g ai/ha, 13 to 15 days) | Plant response rating, Velvetleaf [14, 22]
100: Plant response rating (scale of 0 to 100), Galium ([3]; Preemergence, 250 g ai/ha) | Lambsquarters plant response rating [5, 17] | Plant response rating, Lambsquarters [5, 18] | Plant response rating (scale of 0 to 100), Barnyardgrass ([7]; Preemergence, 250 g ai/ha) | Plant response rating, Barnyardgrass [7, 18] | Plant response rating (scale of 0 to 100), Oilseed Rape ([8]; Preemergence, 250 g ai/ha) | Plant response rating (scale of 0 to 100), Velvetleaf ([9]; Preemergence, 250 g ai/ha) | Velvetleaf plant response rating [9, 17]
75: Galium plant response rating [3, 16] | Plant response rating, Johnsongrass [4, 18] | Oilseed Rape plant response rating [8, 16] | Morningglory plant response rating [13, 20] | Plant response rating, Chickweed [15, 21] | Plant response rating, Chickweed [15, 22]
95: Plant response rating (scale of 0 to 100), Wheat ([2]; Preemergence, 250 g ai/ha) | Plant response rating (scale of 0 to 100), Johnsongrass ([4]; Preemergence, 250 g ai/ha)
25: Plant response rating, Crabgrass, Large [11, 21]
5: Plant response rating (scale of 0 to 100 where 0 is no effect and 100 is complete control), Blackgrass [10, 19] | Blackgrass plant response rating [10, 20] | Plant response rating (scale of 0 to 100 where 0 is no effect and 100 is complete control), Crabgrass, Large [11, 19] | Crabgrass, Large plant response rating [11, 20] | Johnsongrass plant response rating [12, 20] | Plant response rating, Johnsongrass [12, 22] | Plant response rating (scale of 0 to 100 where 0 is no effect and 100 is complete control), Velvetleaf [14, 19]
98: Plant response rating, Galium [3, 18] | Plant response rating (scale of 0 to 100), Lambsquarters ([5]; Preemergence, 250 g ai/ha) | Plant response rating (scale of 0 to 100), Soybean ([6]; Preemergence, 250 g ai/ha) | Oilseed Rape plant response rating [8, 17] | Plant response rating, Oilseed Rape [8, 18] | Plant response rating, Morningglory [13, 21]
55: Soybean plant response rating [6, 17] | Velvetleaf plant response rating [9, 16]
65: Johnsongrass plant response rating [4, 17] | Plant response rating (scale of 0 to 100 where 0 is no effect and 100 is complete control), Chickweed [15, 19]
10: Soybean plant response rating [6, 16] | Plant response rating, Blackgrass [10, 21] | Plant response rating, Blackgrass [10, 22] | Plant response rating, Crabgrass, Large [11, 22] | Plant response rating, Johnsongrass [12, 21] | Velvetleaf plant response rating [14, 20]
85: Galium plant response rating [3, 17] | Lambsquarters plant response rating [5, 16] | Barnyardgrass plant response rating [7, 17] | Plant response rating, Morningglory [13, 22]
60: Plant response rating, Velvetleaf [14, 21]
0: Wheat plant response rating [2, 16] | Plant response rating (scale of 0 to 100 where 0 is no effect and 100 is complete control), Johnsongrass [12, 19]
35: Wheat plant response rating [2, 17] | Johnsongrass plant response rating [4, 16] | Plant response rating (scale of 0 to 100 where 0 is no effect and 100 is complete control), Morningglory [13, 19]
